According to publication PMC8115619, “Generation of a chemical genetic model for JAK3” (Scientific Reports, 2021):

Assays:
[1] = test system: IL-4 induced STAT6 phosphorylation in JAK3 Cys905Ser knockin BMDMs; experiment: Inhibitor washout, IL-4 induced STAT6 phosphorylation, JAK3 Cys905Ser knockin BMDMs; assay type: cell-based, mouse; details: inhibitor 2 h, washed 3 times in PBS; 10 μM TL6-144, 100 μM PF-06651600
Method: To test this, cells were treated with a high concentration of inhibitor for 2 h before being washed 3 times in PBS and then incubated in media without inhibitor for 0.5 to 24 h. […] To confirm this was not the case, similar experiments were done in JAK3 Cys905Ser knockin cells.
BMDMs were isolated from wild type and JAK3 Cys905Ser knockin mice. […] The macrophages were then either stimulated with 10 ng/ml IL-4 for 30 min or washed 3 times in PBS and then incubated in media without inhibitor for the indicated times. The cells were then stimulated with IL-4 for 30 min and STAT6 phosphorylation determined by immunoblotting using levels of ERK1/2 as a loading control.
Briefly, bone marrow was flushed in PBS from the femurs and tibias of mice. Cells were cultured on bacterial grade plastic for 7 days at 37 °C, 5% CO2. […]
Cells were lysed directly into SDS sample buffer and aliquots run on 10% polyacrylamide gels using standard methods[51]. Proteins were transferred onto nitrocellulose membranes, and specific proteins were detected by immunoblotting. […] Bands were detected using Clarity ECL reagents from BioRad and imaged on a Licor Odyssey Fc system. Quantification was carried out using Licor Image Studio software. After correction for the ERK1/2 levels to account for loading differences, percentage inhibition was calculated relative to the IL-4 stimulated condition.

MARK2 = MARK2 (Homo sapiens, UniProt Q7KZI7); experiment: Selectivity screen MARK2; assay type: biochemical; details: 1 µM inhibitor, mean
Method: (§1) For the in vitro kinase assay, JAK3 (5–20 mU diluted in 50 mM Tris pH 7.5, 0.1 mM EGTA, 0.05% β-mercaptoethanol, 1 mg/ml BSA) was assayed against PDKtide ([…]) in a final volume of 25.5 µl containing 50 mM Tris pH 7.5, 0.1 mM EGTA, 0.05% β-mercaptoethanol, 100 µM substrate peptide, 10 mM magnesium acetate and 0.02 mM [33P-γ-ATP] (50–1000 cpm/pmole) and incubated for 30 min at room temperature. Assays were started by the addition of the ATP and stopped by addition of 5 µl of 0.5 M (3%) orthophosphoric acid and then harvested onto P81 Unifilter plates with a wash buffer of 50 mM orthophosphoric acid. To determine the Km for ATP, assays were run using 1, 5, 10, 20, 50, 100, 200, 400, 500 μM ATP and Km derived by non-linear regression fitting to the Michaelis–Menten equation v = Vmax[S]/(Km + [S]). IC50 values for inhibitors via non-linear regression using a parameter model: Y = Bottom + (Top–Bottom)/(1 + (IC50/X)^HillSlope). Non-linear regression was carried out in Prism (version 8). In vitro selectivity screen was carried out as described previously.

PINK = PINK (Tribolium castaneum, UniProt D6WMX4); experiment: Selectivity screen PINK; assay type: biochemical; details: 1 µM inhibitor, mean
Method: as §1

MNK1 = MNK1 (Homo sapiens, UniProt Q9BUB5); experiment: Selectivity screen MNK1; assay type: biochemical; details: 1 µM inhibitor, mean
Method: as §1

TTBK2 = TTBK2 (Homo sapiens, UniProt Q6IQ55); experiment: Selectivity screen TTBK2; assay type: biochemical; details: 1 µM inhibitor, mean
Method: as §1

MAP4K5 = MAP4K5 (Homo sapiens, UniProt Q9Y4K4); experiment: Selectivity screen MAP4K5; assay type: biochemical; details: 1 µM inhibitor, mean
Method: as §1

PKCγ = PKCγ (Homo sapiens, UniProt P05129); experiment: Selectivity screen PKCγ; assay type: biochemical; details: 1 µM inhibitor, mean
Method: as §1

PIM2 = PIM2 (Homo sapiens, UniProt Q9P1W9); experiment: Selectivity screen PIM2; assay type: biochemical; details: 1 µM inhibitor, mean
Method: as §1

ULK1 = ULK1 (Homo sapiens, UniProt O75385); experiment: Selectivity screen ULK1; assay type: biochemical; details: 1 µM inhibitor, mean
Method: as §1

CK2 = CK2 (Homo sapiens, UniProt P68400); experiment: Selectivity screen CK2; assay type: biochemical; details: 1 µM inhibitor, mean
Method: as §1

HIPK3 = HIPK3 (Homo sapiens, UniProt Q9H422); experiment: Selectivity screen HIPK3; assay type: biochemical; details: 1 µM inhibitor, mean
Method: as §1

IKKe = IKKe (Homo sapiens, UniProt Q14164); experiment: Selectivity screen IKKe; assay type: biochemical; details: 1 µM inhibitor, mean
Method: as §1

ASK1 = ASK1 (Homo sapiens, UniProt Q99683); experiment: Selectivity screen ASK1; assay type: biochemical; details: 1 µM inhibitor, mean
IR = IR (Homo sapiens, UniProt P06213); experiment: Selectivity screen IR; assay type: biochemical; details: 1 µM inhibitor, mean
Method: as §1

CDK2-Cyclin A = CDK2-Cyclin A (Homo sapiens, UniProt P24941); experiment: Selectivity screen CDK2-Cyclin A; assay type: biochemical; details: 1 µM inhibitor, mean
p38d MAPK = p38d MAPK (Homo sapiens, UniProt O15264); experiment: Selectivity screen p38d MAPK; assay type: biochemical; details: 1 µM inhibitor, mean
Method: as §1

CSK = CSK (Homo sapiens, UniProt P41240); experiment: Selectivity screen CSK; assay type: biochemical; details: 1 µM inhibitor, mean
Method: as §1

TESK1 = TESK1 (Homo sapiens, UniProt Q15569); experiment: Selectivity screen TESK1; assay type: biochemical; details: 1 µM inhibitor, mean
Method: as §1

PRK2 = PRK2 (Homo sapiens, UniProt Q16513); experiment: Selectivity screen PRK2; assay type: biochemical; details: 1 µM inhibitor, mean
Method: as §1

MSK1 = MSK1 (Homo sapiens, UniProt O75582); experiment: Selectivity screen MSK1; assay type: biochemical; details: 1 µM inhibitor, mean
Method: as §1

PKA = PKA (Homo sapiens, UniProt P17612); experiment: Selectivity screen PKA; assay type: biochemical; details: 1 µM inhibitor, mean
Method: as §1

GCK = GCK (Homo sapiens, UniProt Q12851); experiment: Selectivity screen GCK; assay type: biochemical; details: 1 µM inhibitor, mean
Method: as §1

BTK = BTK (Homo sapiens, UniProt Q06187); experiment: Selectivity screen BTK; assay type: biochemical; details: 1 µM inhibitor, mean
PDK1 = PDK1 (Homo sapiens, UniProt O15530); experiment: Selectivity screen PDK1; assay type: biochemical; details: 1 µM inhibitor, mean
Method: as §1

ERK8 = ERK8 (Homo sapiens, UniProt Q8TD08); experiment: Selectivity screen ERK8; assay type: biochemical; details: 1 µM inhibitor, mean
Method: as §1

p38g MAPK = p38g MAPK (Homo sapiens, UniProt P53778); experiment: Selectivity screen p38g MAPK; assay type: biochemical; details: 1 µM inhibitor, mean
Method: as §1

MLK3 = MLK3 (Homo sapiens, UniProt Q16584); experiment: Selectivity screen MLK3; assay type: biochemical; details: 1 µM inhibitor, mean
Method: as §1

MARK1 = MARK1 (Homo sapiens, UniProt Q9P0L2); experiment: Selectivity screen MARK1; assay type: biochemical; details: 1 µM inhibitor, mean
Method: as §1

EPH-A2 = EPH-A2 (Homo sapiens, UniProt P29317); experiment: Selectivity screen EPH-A2; assay type: biochemical; details: 1 µM inhibitor, mean
Method: as §1

CAMKKb = CAMKKb (Homo sapiens, UniProt Q96RR4); experiment: Selectivity screen CAMKKb; assay type: biochemical; details: 1 µM inhibitor, mean
SIK2 = SIK2 (Homo sapiens, UniProt Q9H0K1); experiment: Selectivity screen SIK2; assay type: biochemical; details: 1 µM inhibitor, mean
Method: as §1

MKK2 = MKK2 (Homo sapiens, UniProt P36507); experiment: Selectivity screen MKK2; assay type: biochemical; details: 1 µM inhibitor, mean
Method: as §1

CLK2 = CLK2 (Homo sapiens, UniProt P49760); experiment: Selectivity screen CLK2; assay type: biochemical; details: 1 µM inhibitor, mean
Method: as §1

IKKb = IKKb (Homo sapiens, UniProt O14920); experiment: Selectivity screen IKKb; assay type: biochemical; details: 1 µM inhibitor, mean
Method: as §1

TLK1 = TLK1 (Homo sapiens, UniProt Q9UKI8); experiment: Selectivity screen TLK1; assay type: biochemical; details: 1 µM inhibitor, mean
Method: as §1

DAPK1 = DAPK1 (Homo sapiens, UniProt P53355); experiment: Selectivity screen DAPK1; assay type: biochemical; details: 1 µM inhibitor, mean
Method: as §1

MINK1 = MINK1 (Homo sapiens, UniProt Q8N4C8); experiment: Selectivity screen MINK1; assay type: biochemical; details: 1 µM inhibitor, mean
Method: as §1

Chain of GCK (Q12851 whole entry): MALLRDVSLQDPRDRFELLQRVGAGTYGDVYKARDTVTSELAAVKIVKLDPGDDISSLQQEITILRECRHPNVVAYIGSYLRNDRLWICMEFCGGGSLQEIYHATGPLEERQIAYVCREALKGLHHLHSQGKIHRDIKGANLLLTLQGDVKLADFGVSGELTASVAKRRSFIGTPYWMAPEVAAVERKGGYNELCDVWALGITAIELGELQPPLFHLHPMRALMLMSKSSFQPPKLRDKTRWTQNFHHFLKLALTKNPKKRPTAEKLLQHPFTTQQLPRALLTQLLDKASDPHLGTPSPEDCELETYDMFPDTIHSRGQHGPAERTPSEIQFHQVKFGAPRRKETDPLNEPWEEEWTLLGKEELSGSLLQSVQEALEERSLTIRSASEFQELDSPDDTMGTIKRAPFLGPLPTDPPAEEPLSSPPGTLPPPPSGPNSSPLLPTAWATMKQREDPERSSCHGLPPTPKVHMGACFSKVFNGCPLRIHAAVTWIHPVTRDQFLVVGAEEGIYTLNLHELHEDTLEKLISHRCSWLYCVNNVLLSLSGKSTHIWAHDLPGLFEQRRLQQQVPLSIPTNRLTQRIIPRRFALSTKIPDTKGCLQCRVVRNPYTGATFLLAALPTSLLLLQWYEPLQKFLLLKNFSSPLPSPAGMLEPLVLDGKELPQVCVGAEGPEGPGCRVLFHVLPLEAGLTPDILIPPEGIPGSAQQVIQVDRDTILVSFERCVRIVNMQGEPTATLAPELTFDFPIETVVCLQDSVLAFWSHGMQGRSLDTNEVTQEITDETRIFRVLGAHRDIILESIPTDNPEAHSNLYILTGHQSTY
Chain of TLK1 (Q9UKI8 whole entry): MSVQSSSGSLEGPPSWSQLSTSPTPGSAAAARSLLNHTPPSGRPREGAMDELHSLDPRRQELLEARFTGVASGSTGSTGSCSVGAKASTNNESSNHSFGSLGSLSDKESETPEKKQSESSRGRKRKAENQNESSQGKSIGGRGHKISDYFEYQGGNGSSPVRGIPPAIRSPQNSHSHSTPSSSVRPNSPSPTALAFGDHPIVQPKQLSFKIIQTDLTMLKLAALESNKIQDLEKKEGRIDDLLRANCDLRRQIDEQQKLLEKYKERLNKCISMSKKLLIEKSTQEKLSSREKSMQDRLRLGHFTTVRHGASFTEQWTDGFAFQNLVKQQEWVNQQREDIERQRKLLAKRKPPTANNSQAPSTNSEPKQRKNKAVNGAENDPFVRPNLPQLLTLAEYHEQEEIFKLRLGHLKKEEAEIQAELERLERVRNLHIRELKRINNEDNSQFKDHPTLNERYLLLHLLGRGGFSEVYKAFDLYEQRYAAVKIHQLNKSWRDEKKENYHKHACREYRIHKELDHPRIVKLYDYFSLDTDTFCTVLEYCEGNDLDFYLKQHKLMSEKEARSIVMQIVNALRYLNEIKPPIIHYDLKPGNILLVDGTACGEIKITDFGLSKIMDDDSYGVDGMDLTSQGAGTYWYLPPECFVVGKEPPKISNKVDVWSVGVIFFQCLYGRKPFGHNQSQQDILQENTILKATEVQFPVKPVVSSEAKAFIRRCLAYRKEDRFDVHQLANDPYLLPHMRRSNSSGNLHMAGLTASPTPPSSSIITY
Chain of PRK2 (Q16513 whole entry): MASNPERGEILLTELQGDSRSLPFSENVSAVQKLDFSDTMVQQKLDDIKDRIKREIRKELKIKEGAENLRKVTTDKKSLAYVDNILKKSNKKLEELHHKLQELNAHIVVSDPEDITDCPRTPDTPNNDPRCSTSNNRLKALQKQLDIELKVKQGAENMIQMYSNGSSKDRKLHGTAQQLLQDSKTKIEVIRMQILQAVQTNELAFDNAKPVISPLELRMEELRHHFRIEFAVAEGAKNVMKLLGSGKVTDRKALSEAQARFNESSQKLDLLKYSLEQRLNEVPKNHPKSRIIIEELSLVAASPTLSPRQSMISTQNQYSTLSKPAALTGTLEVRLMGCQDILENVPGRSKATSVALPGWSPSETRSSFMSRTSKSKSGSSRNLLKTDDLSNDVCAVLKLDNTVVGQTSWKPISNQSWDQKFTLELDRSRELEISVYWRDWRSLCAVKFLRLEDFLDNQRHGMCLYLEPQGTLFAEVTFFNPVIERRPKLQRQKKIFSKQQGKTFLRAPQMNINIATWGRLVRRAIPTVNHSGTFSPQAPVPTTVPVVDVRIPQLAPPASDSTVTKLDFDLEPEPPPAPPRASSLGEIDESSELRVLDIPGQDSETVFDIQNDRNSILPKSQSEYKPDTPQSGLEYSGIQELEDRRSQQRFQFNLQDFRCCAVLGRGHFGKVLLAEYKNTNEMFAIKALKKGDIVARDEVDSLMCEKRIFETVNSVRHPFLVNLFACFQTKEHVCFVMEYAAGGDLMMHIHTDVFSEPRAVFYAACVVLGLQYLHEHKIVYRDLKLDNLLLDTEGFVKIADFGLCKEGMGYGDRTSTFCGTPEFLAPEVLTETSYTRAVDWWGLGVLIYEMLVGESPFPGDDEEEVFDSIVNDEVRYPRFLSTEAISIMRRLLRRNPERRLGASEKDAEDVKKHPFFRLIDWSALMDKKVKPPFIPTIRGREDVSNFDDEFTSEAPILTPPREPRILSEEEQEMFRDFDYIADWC
Chain of BTK (Q06187 whole entry): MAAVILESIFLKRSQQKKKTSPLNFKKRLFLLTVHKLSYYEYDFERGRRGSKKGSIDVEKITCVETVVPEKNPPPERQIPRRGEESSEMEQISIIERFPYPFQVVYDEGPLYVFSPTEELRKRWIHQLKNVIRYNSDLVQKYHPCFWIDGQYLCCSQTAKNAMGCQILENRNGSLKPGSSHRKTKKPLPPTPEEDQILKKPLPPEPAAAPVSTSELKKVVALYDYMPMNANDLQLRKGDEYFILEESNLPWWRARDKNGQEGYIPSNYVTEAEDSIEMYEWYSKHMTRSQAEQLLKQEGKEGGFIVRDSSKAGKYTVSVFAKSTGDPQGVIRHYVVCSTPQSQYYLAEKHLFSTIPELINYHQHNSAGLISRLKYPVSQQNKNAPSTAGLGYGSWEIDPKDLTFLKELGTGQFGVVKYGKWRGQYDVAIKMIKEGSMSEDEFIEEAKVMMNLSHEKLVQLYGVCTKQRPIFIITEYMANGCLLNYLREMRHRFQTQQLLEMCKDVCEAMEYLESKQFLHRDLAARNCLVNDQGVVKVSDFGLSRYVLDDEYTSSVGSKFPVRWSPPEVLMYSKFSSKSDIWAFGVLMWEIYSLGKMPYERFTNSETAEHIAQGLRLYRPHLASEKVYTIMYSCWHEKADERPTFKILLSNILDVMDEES
Chain of EPH-A2 (P29317 24-976): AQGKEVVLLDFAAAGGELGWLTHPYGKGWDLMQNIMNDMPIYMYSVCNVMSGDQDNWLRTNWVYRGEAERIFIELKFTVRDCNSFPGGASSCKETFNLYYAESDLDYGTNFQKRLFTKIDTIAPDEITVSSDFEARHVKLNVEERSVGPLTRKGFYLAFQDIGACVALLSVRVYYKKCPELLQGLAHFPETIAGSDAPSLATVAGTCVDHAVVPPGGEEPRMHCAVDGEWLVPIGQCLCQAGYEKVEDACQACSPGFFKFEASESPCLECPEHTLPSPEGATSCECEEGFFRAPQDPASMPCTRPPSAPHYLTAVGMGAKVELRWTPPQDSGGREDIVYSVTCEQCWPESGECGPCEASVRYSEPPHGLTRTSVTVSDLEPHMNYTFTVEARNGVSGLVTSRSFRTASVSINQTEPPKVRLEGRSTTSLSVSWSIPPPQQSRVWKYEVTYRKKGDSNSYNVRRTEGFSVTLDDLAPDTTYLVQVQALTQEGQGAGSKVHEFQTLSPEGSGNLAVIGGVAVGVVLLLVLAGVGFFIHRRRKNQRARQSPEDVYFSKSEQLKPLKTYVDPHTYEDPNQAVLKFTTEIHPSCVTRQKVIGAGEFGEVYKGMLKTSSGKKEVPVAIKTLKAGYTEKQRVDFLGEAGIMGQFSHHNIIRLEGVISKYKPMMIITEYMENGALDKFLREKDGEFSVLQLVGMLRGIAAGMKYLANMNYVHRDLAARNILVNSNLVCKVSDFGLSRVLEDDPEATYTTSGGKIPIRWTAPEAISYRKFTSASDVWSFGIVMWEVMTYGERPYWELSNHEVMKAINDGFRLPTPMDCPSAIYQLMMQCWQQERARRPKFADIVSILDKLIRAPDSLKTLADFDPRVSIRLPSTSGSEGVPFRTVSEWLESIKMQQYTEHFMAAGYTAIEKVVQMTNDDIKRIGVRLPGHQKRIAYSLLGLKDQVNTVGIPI
Chain of CSK (P41240 whole entry): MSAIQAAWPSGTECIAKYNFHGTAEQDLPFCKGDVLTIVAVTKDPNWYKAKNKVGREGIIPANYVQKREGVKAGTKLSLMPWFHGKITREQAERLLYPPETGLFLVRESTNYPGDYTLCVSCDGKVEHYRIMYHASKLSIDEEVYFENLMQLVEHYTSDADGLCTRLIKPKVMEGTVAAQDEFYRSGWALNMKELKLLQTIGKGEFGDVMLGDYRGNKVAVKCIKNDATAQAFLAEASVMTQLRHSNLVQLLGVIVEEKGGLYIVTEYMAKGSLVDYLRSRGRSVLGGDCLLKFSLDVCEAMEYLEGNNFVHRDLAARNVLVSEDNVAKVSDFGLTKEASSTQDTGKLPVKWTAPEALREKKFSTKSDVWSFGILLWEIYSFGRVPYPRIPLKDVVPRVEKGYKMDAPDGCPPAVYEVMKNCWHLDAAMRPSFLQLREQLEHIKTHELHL
Chain of CK2 (P68400 whole entry): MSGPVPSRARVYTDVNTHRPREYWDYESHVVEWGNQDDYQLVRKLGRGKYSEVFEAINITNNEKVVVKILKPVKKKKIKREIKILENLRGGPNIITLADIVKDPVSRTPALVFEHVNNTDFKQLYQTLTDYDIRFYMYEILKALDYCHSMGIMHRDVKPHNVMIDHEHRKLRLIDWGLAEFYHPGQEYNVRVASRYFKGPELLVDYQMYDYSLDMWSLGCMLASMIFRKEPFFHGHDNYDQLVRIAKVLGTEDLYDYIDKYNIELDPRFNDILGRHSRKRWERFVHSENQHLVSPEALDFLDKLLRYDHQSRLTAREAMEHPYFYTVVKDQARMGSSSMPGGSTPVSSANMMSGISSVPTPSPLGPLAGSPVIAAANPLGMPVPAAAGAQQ

## C=CC(=O)N1C[C@H](Nc2ncnc3[nH]ccc23)CC[C@@H]1C [PF-06651600, 1-((2S,5R)-5-((7H-Pyrrolo[2,3-d]pyrimidin-4-yl)amino)-2-methylpiperidin-1-yl)prop-2-en-1-one, reference compound]
[1]
  inhibition of IL-4 induced STAT6 phosphorylation after inhibitor washout, JAK3 Cys905Ser knockin BMDMs: not retained at any time post washout

## C=CC(=O)Nc1cccc(CNc2nc(Nc3ccc(N4CCN(C)CC4)cc3OC)ncc2Cl)c1 [TL6-144]
MARK2
  activity remaining in the presence of the inhibitor: MARK2: 84
PINK
  activity remaining in the presence of the inhibitor: PINK: 107
MNK1
  activity remaining in the presence of the inhibitor: MNK1: 105
TTBK2
  activity remaining in the presence of the inhibitor: TTBK2: 94
MAP4K5
  activity remaining in the presence of the inhibitor: MAP4K5: 83
PKCγ
  activity remaining in the presence of the inhibitor: PKCγ: 111
PIM2
  activity remaining in the presence of the inhibitor: PIM2: 97
ULK1
  activity remaining in the presence of the inhibitor: ULK1: 65
CK2
  activity remaining in the presence of the inhibitor: CK2: 103
HIPK3
  activity remaining in the presence of the inhibitor: HIPK3: 91
IKKe
  activity remaining in the presence of the inhibitor: IKKe: 100
ASK1
  activity remaining in the presence of the inhibitor: ASK1: 108
IR
  activity remaining in the presence of the inhibitor: IR: 11
[1]
  inhibition of IL-4 induced STAT6 phosphorylation after inhibitor washout, JAK3 Cys905Ser knockin BMDMs: complete loss of inhibition
CDK2-Cyclin A
  activity remaining in the presence of the inhibitor: CDK2-Cyclin A: 87
p38d MAPK
  activity remaining in the presence of the inhibitor: p38d MAPK: 94
CSK
  activity remaining in the presence of the inhibitor: CSK: 113
TESK1
  activity remaining in the presence of the inhibitor: TESK1: 99
PRK2
  activity remaining in the presence of the inhibitor: PRK2: 78
MSK1
  activity remaining in the presence of the inhibitor: MSK1: 86
PKA
  activity remaining in the presence of the inhibitor: PKA: 104
GCK
  activity remaining in the presence of the inhibitor: GCK: 92
BTK
  activity remaining in the presence of the inhibitor: BTK: 37
PDK1
  activity remaining in the presence of the inhibitor: PDK1: 101
ERK8
  activity remaining in the presence of the inhibitor: ERK8: 90
p38g MAPK
  activity remaining in the presence of the inhibitor: p38g MAPK: 88
MLK3
  activity remaining in the presence of the inhibitor: MLK3: 31
MARK1
  activity remaining in the presence of the inhibitor: MARK1: 87
EPH-A2
  activity remaining in the presence of the inhibitor: EPH-A2: 72
CAMKKb
  activity remaining in the presence of the inhibitor: CAMKKb: 6
SIK2
  activity remaining in the presence of the inhibitor: SIK2: 58
MKK2
  activity remaining in the presence of the inhibitor: MKK2: 93
CLK2
  activity remaining in the presence of the inhibitor: CLK2: 62
IKKb
  activity remaining in the presence of the inhibitor: IKKb: 100
TLK1
  activity remaining in the presence of the inhibitor: TLK1: 102
DAPK1
  activity remaining in the presence of the inhibitor: DAPK1: 94
MINK1
  activity remaining in the presence of the inhibitor: MINK1: 80

## C=CC(=O)Nc1cccc(CNc2nc(Nc3ccc(N4CCOCC4)cc3)ncc2Cl)c1 [TL8-52]
MARK2
  activity remaining in the presence of the inhibitor: MARK2: 37
PINK
  activity remaining in the presence of the inhibitor: PINK: 110
MNK1
  activity remaining in the presence of the inhibitor: MNK1: 112
TTBK2
  activity remaining in the presence of the inhibitor: TTBK2: 106
MAP4K5
  activity remaining in the presence of the inhibitor: MAP4K5: 63
PKCγ
  activity remaining in the presence of the inhibitor: PKCγ: 109
PIM2
  activity remaining in the presence of the inhibitor: PIM2: 100
ULK1
  activity remaining in the presence of the inhibitor: ULK1: 48
CK2
  activity remaining in the presence of the inhibitor: CK2: 103
HIPK3
  activity remaining in the presence of the inhibitor: HIPK3: 107
IKKe
  activity remaining in the presence of the inhibitor: IKKe: 34
ASK1
  activity remaining in the presence of the inhibitor: ASK1: 93
IR
  activity remaining in the presence of the inhibitor: IR: 15
CDK2-Cyclin A
  activity remaining in the presence of the inhibitor: CDK2-Cyclin A: 84
p38d MAPK
  activity remaining in the presence of the inhibitor: p38d MAPK: 93
CSK
  activity remaining in the presence of the inhibitor: CSK: 73
TESK1
  activity remaining in the presence of the inhibitor: TESK1: 91
PRK2
  activity remaining in the presence of the inhibitor: PRK2: 52
MSK1
  activity remaining in the presence of the inhibitor: MSK1: 54
PKA
  activity remaining in the presence of the inhibitor: PKA: 74
GCK
  activity remaining in the presence of the inhibitor: GCK: 21
BTK
  activity remaining in the presence of the inhibitor: BTK: 44
PDK1
  activity remaining in the presence of the inhibitor: PDK1: 86
ERK8
  activity remaining in the presence of the inhibitor: ERK8: 65
p38g MAPK
  activity remaining in the presence of the inhibitor: p38g MAPK: 93
MLK3
  activity remaining in the presence of the inhibitor: MLK3: 3
MARK1
  activity remaining in the presence of the inhibitor: MARK1: 44
EPH-A2
  activity remaining in the presence of the inhibitor: EPH-A2: 87
CAMKKb
  activity remaining in the presence of the inhibitor: CAMKKb: 22
SIK2
  activity remaining in the presence of the inhibitor: SIK2: 31
MKK2
  activity remaining in the presence of the inhibitor: MKK2: 63
CLK2
  activity remaining in the presence of the inhibitor: CLK2: 29
IKKb
  activity remaining in the presence of the inhibitor: IKKb: 104
TLK1
  activity remaining in the presence of the inhibitor: TLK1: 82
DAPK1
  activity remaining in the presence of the inhibitor: DAPK1: 100
MINK1
  activity remaining in the presence of the inhibitor: MINK1: 80
